Assays:
hMAO-A = target: T1, hMAO-A (Homo sapiens, UniProt P21397); experiment: in vitro fluorometric hMAO-A inhibition assay (Amplex Red); type: biochemical; settings: read-out: MAO A Inhibition %; for inhibition at 1000 µM: 10^−3 M; for inhibition at 100 µM: 10^−4 M
T1 sequence (P21397 1-527): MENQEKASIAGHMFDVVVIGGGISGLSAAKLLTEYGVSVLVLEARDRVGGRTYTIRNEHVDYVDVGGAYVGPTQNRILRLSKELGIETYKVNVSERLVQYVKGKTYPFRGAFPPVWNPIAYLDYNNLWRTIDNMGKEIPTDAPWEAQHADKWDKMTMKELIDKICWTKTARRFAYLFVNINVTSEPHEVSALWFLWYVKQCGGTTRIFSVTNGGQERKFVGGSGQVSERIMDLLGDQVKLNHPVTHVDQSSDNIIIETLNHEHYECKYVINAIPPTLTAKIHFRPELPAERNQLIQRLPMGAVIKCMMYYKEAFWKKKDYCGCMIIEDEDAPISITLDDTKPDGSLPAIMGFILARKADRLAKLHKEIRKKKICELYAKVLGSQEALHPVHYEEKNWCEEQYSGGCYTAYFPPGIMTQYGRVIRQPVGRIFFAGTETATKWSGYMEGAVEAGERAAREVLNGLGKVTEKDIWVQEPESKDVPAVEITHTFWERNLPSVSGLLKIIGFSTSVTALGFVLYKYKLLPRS
Method: The in vitro fluorometric enzymatic assay, allowing to sensitively detect monoamine oxidase activity, was applied to investigate hMAO-A and hMAO-B inhibitory potential of compounds 3a–3j. The method was performed in two steps, as previously described. […]
(§1) An enzyme inhibition assay was performed according to our recent study. The inhibitor (20 μL/well) and hMAO-A (100 μL/well) or hMAO-B solution (100 μL/well) was added to the fine black-bottom 96-well microtiter plate and the mixture was incubated at 37 °C for 30 min. After the incubation period, the reaction was started by adding a working solution (100 μL/well) ([…] Amplex Red reagent, 1 U/mL horseradish peroxidase and 1 mM p-tyramine) and all pipetting processes were performed using a Biotek Precision XS robotic system (BioTek Instruments, Winooski, VT, USA).
The production of H2O2 and, subsequently, of resorufin was quantified at 37 °C in a BioTek-Synergy H1 microplate reader based on the fluorescence generated (excitation, 535 nm, emission, 587 nm) over a 15 min period, in which the fluorescence increased linearly. Control experiments were carried out simultaneously by replacing the inhibitor solution with 2% DMSO (20 μL). In order to check the probable inhibitory effect of inhibitors on horseradish peroxidase, a parallel reading was achieved by replacing enzyme solutions with 3% H2O2 solution (20 mM 100 μL/well). In addition, the probable capacity of the inhibitors to modify the fluorescence generated in the reaction mixture due to non-enzymatic inhibition was determined by mixing inhibitor and working solutions.
(§2) The specific fluorescence emission (used to obtain the final results) was calculated after subtraction of the background activity, which was determined from vials containing all components except the hMAO isoforms, which were replaced by phosphate buffer (100 μL/well). Blank, control and all concentrations of inhibitors were analyzed in quadruplicate and inhibition percent was calculated by using following equation: % Inhibition=(FCt2−FCt1)−(FIt2−FIt1)/FCt2−FCt1×100 where FCt2 is the fluorescence of a control well measured at t2 time; FCt1 is the fluorescence of a control well measured at t1 time; FIt2 is the fluorescence of an inhibitor well measured at t2 time; and FIt1 is the fluorescence of an inhibitor well measured at t1 time.
(§3) The IC50 values were calculated from a dose-response curve obtained by plotting the percentage inhibition versus the log concentration with the use of GraphPad PRISM software (version 5.0, GraphPad Software Inc., La Jolla, CA, USA).

hMAO-B = target: T2, hMAO-B (Homo sapiens, UniProt P27338); experiment: in vitro fluorometric hMAO-B inhibition assay (Amplex Red); type: biochemical; settings: for inhibition at 1000 µM: 10^−3 M; for inhibition at 1000 µM / inhibition at 100 µM: read-out: MAO B Inhibition %; for inhibition at 100 µM: 10^−4 M; for inhibition against hMAO-B (first screening step): 10^−3 and 10^−4 M; for IC50: concentrations of 10^−5–10^−9 M, mean ± SD, read-out: MAO B IC50
T2 sequence (P27338 1-520): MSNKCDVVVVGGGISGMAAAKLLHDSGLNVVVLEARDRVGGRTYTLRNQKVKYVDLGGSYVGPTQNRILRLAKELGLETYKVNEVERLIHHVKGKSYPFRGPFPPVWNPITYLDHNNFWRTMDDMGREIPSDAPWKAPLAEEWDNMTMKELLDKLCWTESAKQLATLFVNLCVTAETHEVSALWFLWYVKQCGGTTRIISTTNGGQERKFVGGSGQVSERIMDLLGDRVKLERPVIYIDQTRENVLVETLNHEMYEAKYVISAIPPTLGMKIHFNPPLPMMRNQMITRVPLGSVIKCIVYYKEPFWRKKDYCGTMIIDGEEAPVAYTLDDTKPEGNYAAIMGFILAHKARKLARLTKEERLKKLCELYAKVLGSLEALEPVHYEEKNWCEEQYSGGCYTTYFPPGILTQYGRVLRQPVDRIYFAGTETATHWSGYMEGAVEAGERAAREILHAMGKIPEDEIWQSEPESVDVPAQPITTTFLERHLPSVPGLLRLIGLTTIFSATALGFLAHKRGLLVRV
Method: The method was performed in two steps, as previously described.
as §1, with “The inhibitor (20 μL/well) and hMAO-A (100 μL/well) or hMAO-B solution (100 μL/well) was added to the fine black-bottom 96-well microtiter plate and the mixture was incubated at 37 °C for 30 min.” left out
Control experiments were carried out simultaneously by replacing the inhibitor solution with 2% DMSO (20 μL). In order to check the probable inhibitory effect of inhibitors on horseradish peroxidase, a parallel reading was achieved by replacing enzyme solutions with 3% H2O2 solution (20 mM 100 μL/well). In addition, the probable capacity of the inhibitors to modify the fluorescence generated in the reaction mixture due to non-enzymatic inhibition was determined by mixing inhibitor and working solutions.
as §2, §3

Row | melting point | inhibition at 1000 µM (hMAO-A) | inhibition at 100 µM (hMAO-A) | inhibition at 1000 µM (hMAO-B) | inhibition at 100 µM (hMAO-B) | inhibition against hMAO-B (first screening step) (hMAO-B) | IC50 (hMAO-B) | Structure (SMILES)
1 | 149.6 to 152.3 °C | 14.1% | 10.8% | 25.8% | 18.2% | – | – | COc1ccc2sc(SCC(=O)NN=Cc3ccc(C)s3)nc2c1 [Compound 3c, 2-((5-Methoxybenzothiazol-2-yl)thio)-N′-((5-methylthiophen-2-yl)methylene)acetohydrazide]
2 | 168.9 to 170.7 °C | 25.9% | 21.3% | 82.6% | 79.1% | more than 50% | 75 ± 3 nM | COc1ccc2sc(SCC(=O)NN=Cc3ccc([N+](=O)[O-])o3)nc2c1 [Compound 3h, 2-((5-Methoxybenzothiazol-2-yl)thio)-N′-((5-nitrofuran-2-yl)methylene)acetohydrazide]
3 | 146.1 to 147.9 °C | 30.8% | 18.3% | 75.7% | 68.3% | more than 50% | 963 ± 33 nM | COc1ccc2sc(SCC(=O)NN=Cc3ccco3)nc2c1 [Compound 3f, N′-(Furan-2-ylmethylene)-2-((5-methoxybenzothiazol-2-yl)thio)acetohydrazide]
4 | 177.5 to 179.3 °C | 19.9% | 10.6% | 32% | 28.8% | – | – | COc1ccc2sc(SCC(=O)NN=Cc3cccnc3)nc2c1 [Compound 3i, 2-((5-Methoxybenzothiazol-2-yl)thio)-N′-(pyridin-3-ylmethylene)acetohydrazide]
5 | 162.9 to 164.4 °C | 30.1% | 20.4% | 30.5% | 26.9% | – | – | COc1ccc2sc(SCC(=O)NN=Cc3sccc3C)nc2c1 [Compound 3b, 2-((5-Methoxybenzo[d]thiazol-2-yl)thio)-N′-((3-methylthiophen-2-yl)methylene)acetohydrazide]
6 | 163.7 to 165.3 °C | 25% | 19% | 60.4% | 52.1% | more than 50% | 15400 ± 398 nM | COc1ccc2sc(SCC(=O)NN=Cc3cccs3)nc2c1 [Compound 3a, 2-((5-Methoxybenzothiazol-2-yl)thio)-N′-(thiophen-2-ylmethylene)acetohydrazide]
7 | 145.3 to 146.7 °C | 16.7% | 11.1% | 18.2% | 11.2% | – | – | COc1ccc2sc(SCC(=O)NN=Cc3ccc(C)o3)nc2c1 [Compound 3g, 2-((5-Methoxybenzothiazol-2-yl)thio)-N′-((5-methylfuran-2-yl)methylene)acetohydrazide]
8 | – | 91.4 ± 4.6% | 77.9 ± 3.71% | – | – | – | – | O=C(NCCN1CCOCC1)c1ccc(Cl)cc1 [Moclobemide, reference compound]
9 | 188.3 to 190.4 °C | 18.9% | 12.7% | 24% | 17.8% | – | – | COc1ccc2sc(SCC(=O)NN=Cc3ccc(Br)s3)nc2c1 [Compound 3d, N′-((5-Bromothiophen-2-yl)methylene)-2-((5-methoxybenzothiazol-2-yl)thio)acetohydrazide]
10 | 159.8 to 161.4 °C | 22.1% | 17.3% | 34.6% | 30.5% | – | – | COc1ccc2sc(SCC(=O)NN=Cc3ccncc3)nc2c1 [Compound 3j, 2-((5-Methoxybenzothiazol-2-yl)thio)-N′-(pyridin-4-ylmethylene)acetohydrazide]

— PMC6149824, “Design and Synthesis of New Benzothiazole Compounds as Selective hMAO-B Inhibitors” (Molecules : A Journal of Synthetic Chemistry and Natural …, 2017)
